Assay results taken from PubChem BioAssay AID2060495 (Molecular Pharmacology Branch, DTP, NCI, 2025).

Tested on: 521955-158-R2-J5-PDC complex spheroid viability
Assay: Anticancer human tumor 521955-158-R2-J5-PDC patient-derived pancreatic carcinoma cell line growth inhibition [GQUAD]
Conditions: for IC50: curve of first compound; for viability, T/C: stronger effect = lower value
How it was run: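 Tumor cells were grown as complex spheroids with HUVEC endothelial cells and mesenchymal stem cells as stroma. G-quadruplex stabilizers were combined with targeted agents over half-log dilutions from near the clinical Cmax, or from 10 microM.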

[1] = second compound 0.0316 µM, first compound 0.0316 µM
[2] = second compound 0.0316 µM, first compound 0.1 µM
[3] = second compound 0.0316 µM, first compound 0.316 µM
[4] = second compound 0.0316 µM, first compound 1 µM
[5] = second compound 0.0316 µM, first compound 3.16 µM
[6] = second compound 0.0316 µM, first compound 10 µM
[7] = second compound 0.1 µM, first compound 0.0316 µM
[8] = second compound 0.1 µM, first compound 0.1 µM
[9] = second compound 0.1 µM, first compound 0.316 µM
[10] = second compound 0.1 µM, first compound 1 µM
[11] = second compound 0.1 µM, first compound 3.16 µM
[12] = second compound 0.1 µM, first compound 10 µM
[13] = second compound 0.316 µM, first compound 0.0316 µM
[14] = second compound 0.316 µM, first compound 0.1 µM
[15] = second compound 0.316 µM, first compound 0.316 µM
[16] = second compound 0.316 µM, first compound 1 µM
[17] = second compound 0.316 µM, first compound 3.16 µM
[18] = second compound 0.316 µM, first compound 10 µM
[19] = second compound 1 µM, first compound 0.0316 µM
[20] = second compound 1 µM, first compound 0.1 µM
[21] = second compound 1 µM, first compound 0.316 µM
[22] = second compound 1 µM, first compound 1 µM
[23] = second compound 1 µM, first compound 3.16 µM
[24] = second compound 1 µM, first compound 10 µM
[25] = second compound 3.16 µM, first compound 0.0316 µM
[26] = second compound 3.16 µM, first compound 0.1 µM
[27] = second compound 3.16 µM, first compound 0.316 µM
[28] = second compound 3.16 µM, first compound 1 µM
[29] = second compound 3.16 µM, first compound 3.16 µM
[30] = second compound 3.16 µM, first compound 10 µM
[31] = second compound 10 µM, first compound 0.0316 µM
[32] = second compound 10 µM, first compound 0.1 µM
[33] = second compound 10 µM, first compound 0.316 µM
[34] = second compound 10 µM, first compound 1 µM
[35] = second compound 10 µM, first compound 3.16 µM
[36] = second compound 10 µM, first compound 10 µM
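Further: spheroids exposed to agents for one week before reading.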
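Wherever viability, T/C is given: 100% = DMSO vehicle control viability.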

## C#Cc1c(F)ccc2cc(O)cc(-c3ncc4c(N5CC6CCC(C5)N6)nc(OCC56CCCN5CC(F)C6)nc4c3F)c12 (stereo unspecified) + Cc1[nH]c2ccc(F)cc2c1-c1nc2c3cccnc3c3ncccc3c2[nH]1
Second compound 0.0316 µM
  IC50: 1640 nM
Second compound 0.1 µM
  IC50: > 10000 nM
Second compound 0.316 µM
  IC50: 3500 nM
Second compound 1 µM
  IC50: 7530 nM
Second compound 3.16 µM
  IC50: 4290 nM
Second compound 10 µM
  IC50: 1040 nM
[1]
  viability, T/C: 79.8%
[2]
  viability, T/C: 68.6%
[3]
  viability, T/C: 67.3%
[4]
  viability, T/C: 40.5%
[5]
  viability, T/C: 57%
[6]
  viability, T/C: 36.3%
[7]
  viability, T/C: 82.2%
[8]
  viability, T/C: 81%
[9]
  viability, T/C: 64.4%
[10]
  viability, T/C: 45.1%
[11]
  viability, T/C: 58.3%
[12]
  viability, T/C: 46.4%
[13]
  viability, T/C: 74.9%
[14]
  viability, T/C: 67.4%
[15]
  viability, T/C: 53%
[16]
  viability, T/C: 61%
[17]
  viability, T/C: 54%
[18]
  viability, T/C: 42.7%
[19]
  viability, T/C: 58.9%
[20]
  viability, T/C: 72.2%
[21]
  viability, T/C: 68.2%
[22]
  viability, T/C: 57.5%
[23]
  viability, T/C: 59.1%
[24]
  viability, T/C: 47.4%
[25]
  viability, T/C: 54.1%
[26]
  viability, T/C: 58.5%
[27]
  viability, T/C: 59.5%
[28]
  viability, T/C: 50%
[29]
  viability, T/C: 62.7%
[30]
  viability, T/C: 30.9%
[31]
  viability, T/C: 53.3%
[32]
  viability, T/C: 55.4%
[33]
  viability, T/C: 60.6%
[34]
  viability, T/C: 47.4%
[35]
  viability, T/C: 39.4%
[36]
  viability, T/C: 26.6%

## C=CCn1c(=O)c2cnc(Nc3ccc(N4CCN(C)CC4)cc3)nc2n1-c1cccc(C(C)(C)O)n1 + Cc1[nH]c2ccc(F)cc2c1-c1nc2c3cccnc3c3ncccc3c2[nH]1
Second compound 0.0316 µM
  IC50: 217 nM
Second compound 0.1 µM
  IC50: 182 nM
Second compound 0.316 µM
  IC50: 177 nM
Second compound 1 µM
  IC50: 175 nM
Second compound 3.16 µM
  IC50: 159 nM
Second compound 10 µM
  IC50: 192 nM
[1]
  viability, T/C: 103%
[2]
  viability, T/C: 84.9%
[3]
  viability, T/C: 33.1%
[4]
  viability, T/C: 14.6%
[5]
  viability, T/C: 12.6%
[6]
  viability, T/C: 12.1%
[7]
  viability, T/C: 95.1%
[8]
  viability, T/C: 75.8%
[9]
  viability, T/C: 25.8%
[10]
  viability, T/C: 15.8%
[11]
  viability, T/C: 11.1%
[12]
  viability, T/C: 10.5%
[13]
  viability, T/C: 79.9%
[14]
  viability, T/C: 66.6%
[15]
  viability, T/C: 33.2%
[16]
  viability, T/C: 15.2%
[17]
  viability, T/C: 13.2%
[18]
  viability, T/C: 12.1%
[19]
  viability, T/C: 84.1%
[20]
  viability, T/C: 75.4%
[21]
  viability, T/C: 23.4%
[22]
  viability, T/C: 12.8%
[23]
  viability, T/C: 12.6%
[24]
  viability, T/C: 10.4%
[25]
  viability, T/C: 77%
[26]
  viability, T/C: 60.4%
[27]
  viability, T/C: 34.8%
[28]
  viability, T/C: 15%
[29]
  viability, T/C: 15.3%
[30]
  viability, T/C: 19.6%
[31]
  viability, T/C: 68.7%
[32]
  viability, T/C: 68.3%
[33]
  viability, T/C: 36.5%
[34]
  viability, T/C: 18.2%
[35]
  viability, T/C: 14%
[36]
  viability, T/C: 15.6%

## CC(=O)O[C@H]1C(=O)[C@@]2(C)[C@H]([C@H](OC(=O)c3ccccc3)[C@]3(O)C[C@H](OC(=O)[C@H](O)[C@@H](NC(=O)c4ccccc4)c4ccccc4)C(C)=C1C3(C)C)[C@]1(OC(C)=O)CO[C@@H]1C[C@@H]2O + Cc1[nH]c2ccc(F)cc2c1-c1nc2c3cccnc3c3ncccc3c2[nH]1
Second compound 0.0316 µM
  IC50: < 31.6 nM
Second compound 0.1 µM
  IC50: < 31.6 nM
Second compound 0.316 µM
  IC50: < 31.6 nM
Second compound 1 µM
  IC50: < 31.6 nM
Second compound 3.16 µM
  IC50: < 31.6 nM
Second compound 10 µM
  IC50: < 31.6 nM
[1]
  viability, T/C: 46.1%
[2]
  viability, T/C: 34.1%
[3]
  viability, T/C: 31%
[4]
  viability, T/C: 30.8%
[5]
  viability, T/C: 30.8%
[6]
  viability, T/C: 25.6%
[7]
  viability, T/C: 49%
[8]
  viability, T/C: 43.9%
[9]
  viability, T/C: 39%
[10]
  viability, T/C: 31.2%
[11]
  viability, T/C: 35.7%
[12]
  viability, T/C: 29.9%
[13]
  viability, T/C: 47.6%
[14]
  viability, T/C: 37.5%
[15]
  viability, T/C: 31.4%
[16]
  viability, T/C: 27.5%
[17]
  viability, T/C: 32.1%
[18]
  viability, T/C: 24.2%
[19]
  viability, T/C: 43.6%
[20]
  viability, T/C: 41.5%
[21]
  viability, T/C: 43.4%
[22]
  viability, T/C: 31.5%
[23]
  viability, T/C: 19.8%
[24]
  viability, T/C: 33.5%
[25]
  viability, T/C: 38.7%
[26]
  viability, T/C: 36.7%
[27]
  viability, T/C: 30.6%
[28]
  viability, T/C: 32.5%
[29]
  viability, T/C: 34.9%
[30]
  viability, T/C: 30.2%
[31]
  viability, T/C: 41.3%
[32]
  viability, T/C: 41.9%
[33]
  viability, T/C: 32.8%
[34]
  viability, T/C: 40.2%
[35]
  viability, T/C: 37.7%
[36]
  viability, T/C: 39%
